Data published in ChEMBL document CHEMBL1151682, “Insecticidal neolignans from Piper decurrens” (J Nat Prod, 1996).
The source made the active and inactive calls. The rule behind the calls is not given here.

System: Aedes atropalpus
Experiment: Toxicity in sOchlerotatus atropalpus second-instar larvae at 10 ppm after 24 hrs
Assay type: functional, organism-based

Compound | Activity
C[C@H]1c2cc(C=O)ccc2O[C@@H]1c1ccc(O)cc1 | inactive
C/C=C/c1ccc2oc(-c3ccc(O)cc3)c(C)c2c1 | Active
c1csc(-c2ccc(-c3cccs3)s2)c1 | Active
